Measured values: patent US11466028B2, “Fused 1,4-oxazepines as BET protein degraders” (THE REGENTS OF THE UNIVERSITY OF MICHIGAN, priority 2016, dated 2022)
Read-outs that look alike come from different tables or passages of the source.

Key:
[1] = system: RS4;11 xenograph tumors; test: RS4;11 xenograft model; format: in vivo, SCID mice; conditions: SCID mice
Protocol: Cpd. Nos. 7 and 11 were dissolved in 10% PCP [10% PEG400 (Sigma), 3% Cremophor (Sigma), and 87% PBS (Gibco)]. The pH of the drug solutions were checked before use and adjusted with 0.5N NaOH to be between pH 6.5 and 8.0 for IV (intravenous) administration.
RS4;11 cells were maintained at 37° C., 95% air, 5% carbon dioxide in Improved MEM (Richter's Mod.) supplemented with 10% Fetal Bovine Serum, 100 units/ml of penicillin and 100 units/ml of streptomycin (GIBCO™, Invitrogen Corp.) and passaged twice weekly.
Tumor cells for xenografts were harvested with Trypsin (0.05%)-EDTA (0.53 mM) (GIBCO™, Invitrogen Corp.), growth medium added and cells placed on ice. Cells were washed once with 1×PBS (GIBCO™, Invitrogen Corp.) and re-suspended in PBS. After washing in PBS, cells were re-suspended in an ice cold mixture of 1:1 PBS and Matrigel (BD Biosciences, Invitrogen Corp.) for a final Matrigel protein concentration of 5 mg/ml. Cells at 5×10^6 cells in 0.1 ml were injected subcutaneously (s.c.) into the flank region of each mouse using a 25 gauge needle. All tumors were inoculated into SCID mice (strain:236) C.B-17 SCID, Charles River.
The size of tumors growing in the mice was measured in two dimensions using calipers. Tumor volume (mm^3)═(A×B^2)/2 where A and B are the tumor length and width (in mm), respectively. During treatment, tumor volume and body weight were measured three times a week. After the treatment was stopped, tumor volume and body weight was measured at least once a week.
Tumors were not allowed to exceed 10% of the animals total body weight. If an animal had two or more tumors the total weight of all tumors were not allowed to exceed 10% of the animal's total body weight. At the end of the experimental period or when tumor size approached 10% of the total body weight, the animal was euthanized.
Before treatment began, tumors were allowed to grow to 100-200 mm^3 in volume, at which point the blood vessel supplies to the tumor should have been well established. Mice with tumors within acceptable size range were randomized into treatment groups of seven mice. Cpd. Nos. 7 and 11 were given i.v. at 10 mg/kg at days 1,3, and 5 per week for two weeks. The Control group received vehicle alone. Cpd. Nos. 16, 18, 22 and 48 were given i.v. at 5 mg/kg at days 1, 3, and 5 per week for two weeks. The Control group received vehicle alone.
(§1) Representative Compounds of the Disclosure were tested in the RS4;11 and other xenograph models using similar techniques. […] No. 22 in the MDA-MB-231 TNBC model.

[2] = system: RS4;11; test: CellTiter-Glo cell growth inhibition, RS4;11; format: cell-based; conditions: Homo sapiens
Protocol: (§2) Cell growth inhibitory activity of representative Compounds of the Disclosure was determined using the CellTiter-Glo® Luminescent Cell Viability Assay. Cells were seeded in 384-well white opaque cell culture plates at a density of 2,000 cells/well with serially diluted compounds and incubated at 37° C. in an atmosphere of 95% air and 5% CO2 for 4 days. Cell viability was determined using the CellTiter-Glo® Luminescent Cell Viability Assay Kit (Promega, Madison, Wis.) according to the manufacture's instruction. Briefly, a volume of CellTiter-Glo® Reagent equal to the volume of cell culture medium was added to each well, and then the plates were incubated at room temperature for 10-20 minutes. The luminescent signal was measured using a Tecan Infinite M1000 multimode microplate reader (Tecan, Morrisville, N.C.). The half maximal inhibitory concentration (IC50) was calculated using the GraphPad Prism 5 software (GraphPad Software, La Jolla, Calif.).
(§3) Cpd. Nos. 18 and 19 were tested in various leukemia cell lines using the CellTiter-Glo® Luminescent Cell Viability Assay as described in Example 35.

[3] = system: MOLM-13; test: CellTiter-Glo cell growth inhibition, MOLM-13; format: cell-based; conditions: Homo sapiens
Protocol: as §2, §3

[4] = system: MDA-MB-231; test: CellTiter-Glo cell growth inhibition, MDA-MB-231; format: cell-based; conditions: Homo sapiens, MDA-MB-231, 96 h, 4 days, Table 4
Protocol: as §2

[5] = system: MV4;11 xenograph; test: MV4;11 xenograph model; format: in vivo; conditions: FIG. 9
Protocol: as §1

[6] = system: KG1; test: CellTiter-Glo cell viability, KG1 leukemia cell line; format: cell-based; conditions: Homo sapiens, KG-1, Table 5
Protocol: as §2, §3

[7] = system: AML5; test: CellTiter-Glo cell viability, AML5 leukemia cell line; format: cell-based; conditions: Table 5
Protocol: as §2, §3

[8] = target: T1, BRD4 (Homo sapiens, UniProt O60885); test: Western blot, degradation of BRD4 in RS4;11 cells; format: cell-based; conditions: 2.5 h, as compared to Compound A, FIG. 1
T1 construct: Collected cells were lysed in lysis buffer; endogenous in cells; host or cells: RS4;11 and MOLM-13 leukemia cells
Protocol: (§4) Cells were treated with compounds at the indicated concentrations for 2.5 h and 3 h, respectively, for RS4;11 (see FIG. 1) and MOLM-13 (see FIG. 2) cells. Compound A is ((S)-3-benzyl-6,9-dimethyl-2-((1-methyl-1H-pyrazol-4-yl)ethynyl)-4H,6H-thieno[2,3-e][1,2,4]triazolo[3,4-c][1,4]oxazepine). See Cpd. No. 85 of U.S. Appl. No. 62/295,271.
(§5) Collected cells were lysed in lysis buffer [1% CHAPS, 150 mM NaCl, 20 mM Tris-HCl, 1 mM. EDTA, 1 mM EGTA, and COMPLETE proteinase inhibitor (Roche)] for 30 minutes on ice. Protein concentrations were determined using the Bio-Rad Protein Assay Dye reagent. Whole tumor lysates (20 μg) were separated on a 4-20% Novex gels (Invitrogen). The separated proteins were transferred to a PVDF membrane (BIO-RAD) and the PVDF membrane was then blotted with 5% Blotting-Grade Blocker (BIO-RAD) for 1 hour at room temperature. The primary antibodies used were BRD4 rabbit polyclonal antibody [Bethyl Laboratories, Inc, cat #A301] and BRD2 antibody.
(§6) The BIO-RAD Clarity Western ECL Substrates (BIO-RAD) and HyBlot CL film (Denville) were used for signal development and detection using a SRX-101A tabletop processor (Konica Minolta).

[9] = system: AML3; test: CellTiter-Glo cell viability, AML3 leukemia cell line; format: cell-based; conditions: Table 5
Protocol: as §2, §3

[10] = target: T2, BRD2 (Homo sapiens, UniProt P25440); test: Western blot, degradation of BRD2 in MOLM-13 cells; format: cell-based; conditions: 3 h, as compared to Compound A, FIG. 2
T2 construct: endogenous in cells; host or cells: RS4;11 and MOLM-13 leukemia cells
T2 sequence (P25440 whole entry): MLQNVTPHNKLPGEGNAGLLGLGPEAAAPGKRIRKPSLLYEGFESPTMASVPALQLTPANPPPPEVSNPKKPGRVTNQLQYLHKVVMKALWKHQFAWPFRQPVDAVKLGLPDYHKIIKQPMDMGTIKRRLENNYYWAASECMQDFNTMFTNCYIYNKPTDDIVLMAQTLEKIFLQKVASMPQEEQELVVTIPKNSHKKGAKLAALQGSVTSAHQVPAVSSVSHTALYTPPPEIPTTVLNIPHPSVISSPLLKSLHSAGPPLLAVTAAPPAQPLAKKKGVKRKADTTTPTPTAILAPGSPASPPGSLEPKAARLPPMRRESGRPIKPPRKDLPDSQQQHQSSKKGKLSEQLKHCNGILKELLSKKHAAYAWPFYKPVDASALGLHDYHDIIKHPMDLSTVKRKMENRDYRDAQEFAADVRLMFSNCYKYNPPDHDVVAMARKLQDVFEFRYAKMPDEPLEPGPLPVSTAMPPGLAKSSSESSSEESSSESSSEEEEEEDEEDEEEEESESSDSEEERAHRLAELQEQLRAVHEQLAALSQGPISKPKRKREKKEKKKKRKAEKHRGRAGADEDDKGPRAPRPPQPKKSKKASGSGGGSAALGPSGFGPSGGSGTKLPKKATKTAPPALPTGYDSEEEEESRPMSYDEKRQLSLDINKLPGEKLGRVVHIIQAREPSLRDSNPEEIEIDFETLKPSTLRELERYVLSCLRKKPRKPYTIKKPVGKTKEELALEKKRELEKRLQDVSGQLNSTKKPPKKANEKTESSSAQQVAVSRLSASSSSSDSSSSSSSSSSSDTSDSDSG
Protocol: as §4, §5, §6

[11] = target: T1, BRD4; test: Western blot, degradation of BRD4 in MOLM-13 cells; format: cell-based; conditions: 3 h, as compared to Compound A, FIG. 2
Protocol: as §4, §5, §6

[12] = system: MOLM16; test: CellTiter-Glo cell viability, MOLM16 leukemia cell line; format: cell-based; conditions: Table 5
Protocol: as §2, §3

[13] = system: MV4; 11; test: CellTiter-Glo cell viability, MV4;11 leukemia cell line; format: cell-based; conditions: Homo sapiens, Table 5
Protocol: as §2, §3

[14] = target: T2, BRD2; test: Western blot, degradation of BRD2 in RS4;11 cells; format: cell-based; conditions: 2.5 h, as compared to Compound A, FIG. 1
Protocol: as §4, §5, §6

[15] = system: MonoMac6; test: CellTiter-Glo cell viability, MonoMac6 leukemia cell line; format: cell-based; conditions: Homo sapiens, MONO-MAC-6, Table 5
Protocol: as §2, §3

[16] = system: HL60; test: CellTiter-Glo cell viability, HL60 leukemia cell line; format: cell-based; conditions: Homo sapiens, HL-60, Table 5
Protocol: as §2, §3

[17] = i.v. 5 mg/kg at days 1, 3, 5 per week for two weeks, FIG. 4
[18] = RS4-11, 96 h, 4 days, Table 4, read-out: RS-4, 11 IC50
[19] = MOLM-13, 96 h, 4 days, Table 4, read-out: MOLM-13 IC50

Structure (SMILES): Cc1nnc2n1-c1sc(C#Cc3cnn(CCCCCc4cccc5c4CN(C4CCC(=O)NC4=O)C5=O)c3)c(Cc3ccccc3)c1COC2 (centres unmarked) [Cpd. No. 48, 3-(4-(5-(4-((3-benzyl-9-methyl-4H,6H-thieno[2,3-e][1,2,4]triazolo[3,4-c][1,4]oxazepin-2-yl)ethynyl)-1H-pyrazol-1-yl)pentyl)-1-oxoisoindolin-2-yl) piperidine-2,6-dione]
- tumor regression in RS4;11 xenograph tumors [1, 17]: induce tumor regression
- IC50 [2, 18]: 0.22 nM
- IC50 [3, 19]: 1.7 nM
- IC50 [4]: 0.33 nM

Structure (SMILES): Cc1nnc2n1-c1sc(C#Cc3cnn(CCCCOc4cccc5c4CN(C4CCC(=O)NC4=O)C5=O)c3)c(Cc3ccccc3)c1COC2 (centres unmarked) [compound 65, 3-(4-(4-(4-((3-benzyl-9-methyl-4H,6H-thieno[2,3-e][1,2,4]triazolo[3,4-c][1,4]oxazepin-2-yl)ethynyl)-1H-pyrazol-1-yl)butoxy)-1-oxoisoindolin-2-yl)piperidine-2,6-dione]
- tumor regression in the MV4;11 xenograph model [5]: induce tumor regression

Structure (SMILES): Cc1nnc2n1-c1sc(C#Cc3cnn(CCCCCc4cccc5c4CN(C4CCC(=O)NC4=O)C5=O)c3)c(Cc3ccccc3)c1CO[C@H]2C (stereo partly drawn) [Cpd. No. 19, 3-(4-(5-(4-(((S)-3-benzyl-6,9-dimethyl-4H,6H-thieno[2,3-e][1,2,4]triazolo[3,4-c][1,4]oxazepin-2-yl)ethynyl)-1H-pyrazol-1-yl)pentyl)-1-oxoisoindolin-2-yl) piperidine-2,6-dione]
- IC50 [6]: 3.99 ± 0.18 nM
- IC50 [7]: 0.84 ± 0.14 nM
- degradation of BRD4 protein (Western blot) [8]: induce degradation
- IC50 [9]: 2.44 ± 0.22 nM
- IC50 [2, 18]: 0.06 nM
- IC50 ([2]; RS4-11, Table 5, read-out: IC50 (nM) RS4, 11): 0.8 ± 0.1 nM
- IC50 [3, 19]: 2.7 nM
- IC50 ([3]; MOLM-13, Table 5, read-out: IC50 (nM) MOLM13): 7.6 nM
- degradation of BRD2 protein (Western blot) [10]: induce degradation
- degradation of BRD4 protein (Western blot) [11]: induce degradation
- IC50 [12]: 0.15 ± 0.06 nM
- IC50 [4]: 12 nM
- IC50 [13]: 0.46 ± 0.1 nM
- degradation of BRD2 protein (Western blot) [14]: induce degradation
- IC50 [15]: 1.8 ± 0.3 nM
- IC50 [16]: 0.97 ± 0.08 nM

Structure (SMILES): Cc1nnc2n1-c1sc(C#Cc3cnn(CCCCNc4cccc5c4C(=O)N(C4CCC(=O)NC4=O)C5=O)c3)c(Cc3ccccc3)c1COC2 (centres unmarked) [Cpd. No. 16, 4-((4-(4-((3-benzyl-9-methyl-4H,6H-thieno[2,3-e][1,2,4]triazolo[3,4-c][1,4]oxazepin-2-yl)ethynyl)-1H-pyrazol-1-yl)butyl)amino)-2-(2,6-dioxopiperidin-3-yl) isoindoline-1,3-dione]
- tumor regression in RS4;11 xenograph tumors [1, 17]: induce tumor regression
- IC50 [2, 18]: 0.1 nM
- IC50 [3, 19]: 0.9 nM
- IC50 [4]: 0.29 nM

Structure (SMILES): Cc1nnc2n1-c1sc(C#Cc3cnc(CCCC#Cc4cccc5c4C(=O)N(C4CCC(=O)NC4=O)C5=O)[nH]3)c(Cc3ccccc3)c1CO[C@H]2C (stereo partly drawn) [Cpd. No. 12, 4-(5-(5-(((S)-3-benzyl-6,9-dimethyl-4H,6H-thieno[2,3-e][1,2,4]triazolo[3,4-c][1,4]oxazepin-2-yl)ethynyl)-1H-imidazol-2-yl)pent-1-yn-1-yl)-2-(2,6-dioxopiperidin-3-yl)isoindoline-1,3-dione]
- IC50 [2, 18]: > 1000 nM
- IC50 [3, 19]: > 1000 nM
- IC50 [4]: > 1000 nM

Structure (SMILES): Cc1nnc2n1-c1sc(C#Cc3cnn(CCCCNc4cccc5c4CN(C4CCC(=O)NC4=O)C5=O)c3)c(Cc3ccccc3)c1COC2 (centres unmarked) [Cpd. No. 17, 3-(4-((4-(4-((3-benzyl-9-methyl-4H,6H-thieno[2,3-e][1,2,4]triazolo[3,4-c][1,4]oxazepin-2-yl)ethynyl)-1H-pyrazol-1-yl)butyl)amino)-1-oxoisoindolin-2-yl) piperidine-2,6-dione]
- IC50 [2, 18]: 0.06 nM
- IC50 [3, 19]: 0.5 nM
- IC50 [4]: 0.21 nM
- tumor regression in the MV4;11 xenograph model [5]: induce tumor regression

Structure (SMILES): Cc1nnc2n1-c1sc(C#Cc3cnn(CCCCNc4cccc5c4CN(C4CCC(=O)NC4=O)C5=O)c3)c(Cc3ccccc3)c1CO[C@H]2C (stereo partly drawn) [Cpd. No. 11, 3-(4-((4-(4-(((S)-3-benzyl-6,9-dimethyl-4H,6H-thieno[2,3-e][1,2,4]triazolo[3,4-c][1,4]oxazepin-2-yl)ethynyl)-1H-pyrazol-1-yl)butyl)amino)-1-oxoisoindolin-2-yl) piperidine-2,6-dione]
- tumor regression in RS4;11 xenograph tumors ([1]; i.v. 10 mg/kg at days 1, 3, 5 per week for two weeks, FIG. 3): induce tumor regression
- IC50 [3, 19]: 0.4 nM
- IC50 [4]: 2.3 nM
